Experimental data from patent publication US5698571A, “5-HT1F mediated inhibition of neurogenic meningeal extravasation: a method for the treatment of migraine” (Eli Lilly and Company, priority 1994, dated 1997).
Where a name gives a salt, the structure may show the parent alone. Read-outs that look alike come from different tables or passages of the source.

How the values were obtained:
[1] = test system: rabbit saphenous vein; assay: Rabbit Saphenous Vein Contraction
[2] = test system: migraine; settings: in vivo; cited from earlier work
[3] = test system: neuronal protein extravasation; assay: Protein extravasation assay (dura, stimulation of trigeminal ganglion); format: in vivo, guinea pig
[4] = Humphrey et al.; cited from earlier work
[5] = biological target: T1, 5-HT1F (Homo sapiens, UniProt P30939); assay: Radioligand binding ([3H]5-HT displacement), 5-HT1F
T1 construct: expressed in transfected cells; host or cells: Ltk- cells

[6] = test system: neurogenic inflammation; settings: dose similar to that required to treat acute migraine in humans; cited from earlier work
[7] = test system: 5-HT1F receptor; settings: Weinshank et al., WO93/14201; cited from earlier work
[8] = in vivo; cited from earlier work
[9] = biological target: T2, 5-HT1F receptor (Homo sapiens, UniProt P30939); assay: Measurement of cAMP formation: inhibition of forskolin stimulated cAMP in NIH3 T3 cells transfected with the 5-HT1F receptor; format: cell-based; settings: for agonist character at the 5-HT1F receptor in the cAMP assay: forskolin stimulated cAMP, transfected NIH3 T3 cells
T2 sequence (P30939 1-366): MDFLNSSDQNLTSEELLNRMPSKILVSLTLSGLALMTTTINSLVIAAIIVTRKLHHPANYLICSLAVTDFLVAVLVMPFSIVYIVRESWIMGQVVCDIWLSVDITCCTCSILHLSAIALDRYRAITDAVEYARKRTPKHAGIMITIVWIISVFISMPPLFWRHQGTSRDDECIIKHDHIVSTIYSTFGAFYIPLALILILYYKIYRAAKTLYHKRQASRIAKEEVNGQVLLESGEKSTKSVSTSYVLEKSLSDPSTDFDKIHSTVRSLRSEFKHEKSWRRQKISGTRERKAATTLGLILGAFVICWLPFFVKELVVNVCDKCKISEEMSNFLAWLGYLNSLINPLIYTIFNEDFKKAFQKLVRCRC

[10] = test system: vasoconstriction; settings: Goodman and Gilman; cited from earlier work
[11] = Oryctolagus cuniculus, read-out: Corrected Vasoconstriction EC50
[12] = Oryctolagus cuniculus; read-out: Rabbit Saphenous Vein Contraction EC50
[13] = Cavia porcellus, iv, read-out: Inhibition of Protein Extravasation i.v. ID50
[14] = Oryctolagus cuniculus, read-out: Rabbit Saphenous Vein Contraction (% Max. KCl)
[15] = i.v., 10 minutes before trigeminal ganglion stimulation; dose inhibiting extravasation by 50%

Q: Which results are given for `CNS(=O)(=O)Cc1ccc2[nH]cc(CCN(C)C)c2c1.O=C(O)CCC(=O)O` [Compound I, 3-[2-(dimethylamino)ethyl]-N-methyl-1H-indole-5-methanesulfonamide butane-1,4-dioate (1:1)]?
A: EC50 [1, 11]: 10.3 nM; EC50 [1, 12]: 660 nM; efficacy in the treatment of migraine [2]: effective in the treatment of migraine; ED50 [3, 13]: 2.6e-05 µmol/kg; Inhibition of Protein Extravasation i.v. ID50 ([3]; iv): 2.6e-08 mmol/kg; agonist at 5-HT1-like receptors, hydrophilicity [4]: hydrophilic agonist at 5-HT-1-like receptors; crossing of the blood-brain barrier [4]: does not cross the blood-brain barrier; 5-HT1F activity (in words) [5]: significant component of 5-HT1F activity; blockade of neurogenic inflammation [6]: blocked; affinity for the 5-HT1F receptor [7]: high affinity; contraindications as products of vasoconstrictive activity [8]: coronary vasospasm, hypertension and angina

Q: Which results are given for `Cn1cc(CCN2CCC(c3c[nH]c4ccc(F)cc34)CC2)cn1` [Compound II, 5-fluoro-3-<1-<2-<1-methyl-1H-pyrazol-4-yl >ethyl>-4-piperidinyl>-1H-indolehydrochloride]?
A: EC50 ([1]; Oryctolagus cuniculus; read-out: Corrected Vasoconstriction EC50): 72.9 nM; Emax ([1]; Oryctolagus cuniculus; read-out: Rabbit Saphenous Vein Contraction (% Max. KCl)): 13.7%; EC50 [1, 12]: 1000 nM; ED50 ([3]; Cavia porcellus, iv; read-out: Inhibition of Protein Extravasation i.v. ID50): 8e-07 µmol/kg; Inhibition of Protein Extravasation i.v. ID50 ([3]; guinea pig, in vivo, iv): 8e-10 mmol/kg

Q: For `Oc1ccc2[nH]cc(C3CCNCC3)c2c1` [Compound III, 5-hydroxy-3-(4-piperidinyl)-1-H-indole oxalate], which ED50 [3, 13] is on record?
A: 8.9e-06 µmol/kg

Q: For `CCN(CC)C1CCc2cccc(Cl)c2C1.Cl` (centres unmarked) [Compound IV, 8-chloro-2-diethylamino-1,2,3,4-tetrahydronaphthalene hydrochloride], which EC50 [1, 11] is on record?
A: 1.49 nM

Q: And the Emax [1, 14]?
A: 67.2%

Q: What about the EC50 [1, 12] of the same compound?
A: 1000 nM

Q: What about the ED50 [3, 13] of the same compound?
A: 0.00012 µmol/kg

Q: What about the “Inhibition of Protein Extravasation i.v. ID50” value [3, 15] of the same compound?
A: 1.2e-07 mmol/kg

Q: What about the “5-HT1F activity (in words)” value [5] of the same compound?
A: significant component of 5-HT1F activity

Q: Which EC50 [1, 11] does the source give for `CN(C)C1CCc2[nH]c3ccc(O)cc3c2C1` (centres unmarked) [Compound V, 6-hydroxy-3-dimethylamino-1,2,3,4-tetrahydrocarbazole] here?
A: > 8030 nM

Q: What about the Emax [1, 14] of the same compound?
A: 12.4%

Q: What about the EC50 ([1]; Oryctolagus cuniculus, read-out: Rabbit Saphenous Vein Contraction EC50) of the same compound?
A: > 100000 nM

Q: And the ED50 [3, 13]?
A: 8.7e-06 µmol/kg

Q: And the “Inhibition of Protein Extravasation i.v. ID50” value [3, 15]?
A: 8.7e-09 mmol/kg

Q: Which ED50 [3, 13] does the source give for `CN1C[C@H](C(=O)N[C@]2(C)O[C@@]3(O)[C@@H]4CCCN4C(=O)[C@H](Cc4ccccc4)N3C2=O)C[C@@H]2c3cccc4[nH]cc(c34)C[C@H]21` [Dihydroergotamine] here?
A: 2.43e-05 µmol/kg

Q: And the “inhibition of neuronal protein extravasation (in words)” value ([3]; i.v.)?
A: fully effective inhibitor

Q: What about the “ratio of extravasation in the dura, stimulated side compared to unstimulated side” value ([3]; i.v.; saline controls approximately 2.0 in rats, 1.8 in guinea pigs) of the same compound?
A: 1.0

Q: And the “agonist character at the 5-HT1F receptor in the cAMP assay” value [9]?
A: partial agonist

Q: What about the “cAMP assay Emax at the 5-HT1F receptor” value ([9]; percent of maximal effect of serotonin, forskolin 10 μM) of the same compound?
A: 49.5%

Q: And the vasoconstrictor activity [10]?
A: potent vasoconstrictor

Q: For `NCCc1c[nH]c2ccc(O)cc12` [serotonin], which “agonist character at the 5-HT1F receptor in the cAMP assay” value [9] is on record?
A: maximal effect
